Laboratory results: US8586591B2, “Aminopyrazine derivative and medicine” (Nippon Shinyaku Co., Ltd., priority 2009, dated 2013)

What was measured:
JAK2 tyrosine kinase = target: T1, JAK2 tyrosine kinase (Homo sapiens, UniProt O60674); assay: Test 1: inhibitory activity to JAK2 tyrosine kinase (ELISA); assay type: biochemical; conditions: 25 μM ATP in substrate solution, 30° C. for 1 hour, n=2
T1 construct: purchased Carnabioscience Co
Summary of the method: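 This is an ELISA read at A450 (HRP anti-phosphotyrosine antibody, TMB) of biotin-peptide phosphorylation captured on streptavidin. Enzyme solution was 0.75 nM JAK2, and the substrate solution was 625 nM peptide with 25 μM ATP in Tris pH 7.5 buffer. The reaction ran 1 h at 30 °C with compounds in duplicate, and IC50 was fitted non-linearly.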

JAK3 tyrosine kinase = target: T2, JAK3 tyrosine kinase (Homo sapiens, UniProt P52333); assay: Test 1: inhibitory activity to JAK3 tyrosine kinase (ELISA); assay type: biochemical; conditions: 25 μM ATP in substrate solution, 30° C. for 1 hour, n=2
T2 construct: purchased Carnabioscience Co
T2 sequence (P52333 1-1124): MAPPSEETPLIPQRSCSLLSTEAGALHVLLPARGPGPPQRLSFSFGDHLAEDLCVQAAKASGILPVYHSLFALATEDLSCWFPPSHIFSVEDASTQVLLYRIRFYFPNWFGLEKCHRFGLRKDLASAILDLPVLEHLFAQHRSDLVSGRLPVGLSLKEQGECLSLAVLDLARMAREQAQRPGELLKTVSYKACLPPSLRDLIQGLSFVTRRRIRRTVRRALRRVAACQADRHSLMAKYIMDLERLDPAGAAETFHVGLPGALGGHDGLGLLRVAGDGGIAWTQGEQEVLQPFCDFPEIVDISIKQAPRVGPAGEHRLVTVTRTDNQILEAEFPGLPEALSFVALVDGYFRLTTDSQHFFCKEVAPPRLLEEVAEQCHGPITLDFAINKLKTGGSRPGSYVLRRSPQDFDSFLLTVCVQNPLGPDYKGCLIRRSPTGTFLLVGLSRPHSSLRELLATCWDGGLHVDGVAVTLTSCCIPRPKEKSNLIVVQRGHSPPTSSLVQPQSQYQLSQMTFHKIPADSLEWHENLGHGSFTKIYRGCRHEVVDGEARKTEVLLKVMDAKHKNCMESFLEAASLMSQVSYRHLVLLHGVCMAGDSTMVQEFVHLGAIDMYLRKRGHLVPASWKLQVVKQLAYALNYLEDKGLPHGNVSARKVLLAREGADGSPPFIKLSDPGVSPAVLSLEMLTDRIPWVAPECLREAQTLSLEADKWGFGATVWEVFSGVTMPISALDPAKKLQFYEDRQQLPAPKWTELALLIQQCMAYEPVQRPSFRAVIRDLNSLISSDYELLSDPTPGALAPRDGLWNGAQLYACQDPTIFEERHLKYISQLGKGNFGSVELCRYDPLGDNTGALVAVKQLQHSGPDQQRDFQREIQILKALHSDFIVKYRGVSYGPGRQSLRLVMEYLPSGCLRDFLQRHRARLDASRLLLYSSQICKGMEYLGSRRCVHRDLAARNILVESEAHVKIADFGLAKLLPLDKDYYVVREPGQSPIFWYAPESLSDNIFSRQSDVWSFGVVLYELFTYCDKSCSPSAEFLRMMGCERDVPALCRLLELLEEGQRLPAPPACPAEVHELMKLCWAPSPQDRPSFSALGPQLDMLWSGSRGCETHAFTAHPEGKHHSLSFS
Summary of the method: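 ELISA of JAK3 kinase activity with absorbance read at 450 nm. Compounds were tested from DMSO dilution series at 100-fold the measurement concentrations (1000–0.01 μM), diluted up to 20 times in assay buffer, against a DMSO negative control. IC50 was estimated by non-linear regression of absorbance.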

[1] = target: BaF3 cells into which JAK2 V617F gene was introduced (Homo sapiens, UniProt O60674, V617F, cells depend on it); assay: Test 2: growth inhibitory action against variant JAK2 expressed cells (MTT method); assay type: cell-based; conditions: incubation for 3 days, triplicate, read-out: concentration of the test material which inhibited 50% of the cell growth (IC50)
Protocol: Test 2: Growth inhibitory action against variant JAK2 expressed cells
BaF3 cells into which JAK2 V617F gene was introduced ([…]) were inoculated on a 96-well plate in an amount of 1×10^3 cells/well and allowed to stand in a CO2 incubator. Next day, the test material was added to the cells. The test material was serially diluted with DMSO to give 10 mM, 6 mM, 3 mM, 1 mM, 600 μM, 300 μM, 100 μM, 60 μM, 30 μM, or 10 μM solution. This was diluted 100 times with distilled water to give 100 μM, 60 μM, 30 μM, 10 μM, 6 μM, 3 μM, 1 μM, 600 nM, 300 nM, or 100 nM solution. This solution of test material was added to the well in an amount of 10 μl/well. As a negative control, 1% DMSO solution was added to the well in an amount of 10 μl/well. In the above operation, the final concentration of the test material became 10 μM, 6 μM, 3 μM, 1 μM, 600 nM, 300 nM, 100 nM, 60 nM, 30 nM, 10 nM, or 0 nM (0.1% DMSO solution). The addition of the test material solution to each well was made in triplicate.
After continuous incubation for 3 days, the viable count was determined by an MTT method. The MTT method was carried out as follows. First, 10 μl each of solution containing 5 mg/ml of MTT (3-(4,5-dimethylthiazol-2-yl)-2,5-diphenyltetrazolium bromide) was added to each well. The plate was allowed to stand in a CO2 incubator for 4 hours, and then 100 μl of 0.04N HCl/2-propanol solution was added to each well to stop the reaction. The generated MTT-formazan was dissolved well with a multi-channel pipette, and the absorbance at 595 nm was measured with reference to that at 655 nm (Thermo Co.; Multiskan FC). Non-linear regression analysis was made by means of a SAS system (SAS Institute Inc.), and the concentration (IC50) of the test material which inhibited 50% of the cell growth was estimated.

BaF3 cells into which JAK2 V617F gene was introduced, sequence (O60674 whole entry V617F): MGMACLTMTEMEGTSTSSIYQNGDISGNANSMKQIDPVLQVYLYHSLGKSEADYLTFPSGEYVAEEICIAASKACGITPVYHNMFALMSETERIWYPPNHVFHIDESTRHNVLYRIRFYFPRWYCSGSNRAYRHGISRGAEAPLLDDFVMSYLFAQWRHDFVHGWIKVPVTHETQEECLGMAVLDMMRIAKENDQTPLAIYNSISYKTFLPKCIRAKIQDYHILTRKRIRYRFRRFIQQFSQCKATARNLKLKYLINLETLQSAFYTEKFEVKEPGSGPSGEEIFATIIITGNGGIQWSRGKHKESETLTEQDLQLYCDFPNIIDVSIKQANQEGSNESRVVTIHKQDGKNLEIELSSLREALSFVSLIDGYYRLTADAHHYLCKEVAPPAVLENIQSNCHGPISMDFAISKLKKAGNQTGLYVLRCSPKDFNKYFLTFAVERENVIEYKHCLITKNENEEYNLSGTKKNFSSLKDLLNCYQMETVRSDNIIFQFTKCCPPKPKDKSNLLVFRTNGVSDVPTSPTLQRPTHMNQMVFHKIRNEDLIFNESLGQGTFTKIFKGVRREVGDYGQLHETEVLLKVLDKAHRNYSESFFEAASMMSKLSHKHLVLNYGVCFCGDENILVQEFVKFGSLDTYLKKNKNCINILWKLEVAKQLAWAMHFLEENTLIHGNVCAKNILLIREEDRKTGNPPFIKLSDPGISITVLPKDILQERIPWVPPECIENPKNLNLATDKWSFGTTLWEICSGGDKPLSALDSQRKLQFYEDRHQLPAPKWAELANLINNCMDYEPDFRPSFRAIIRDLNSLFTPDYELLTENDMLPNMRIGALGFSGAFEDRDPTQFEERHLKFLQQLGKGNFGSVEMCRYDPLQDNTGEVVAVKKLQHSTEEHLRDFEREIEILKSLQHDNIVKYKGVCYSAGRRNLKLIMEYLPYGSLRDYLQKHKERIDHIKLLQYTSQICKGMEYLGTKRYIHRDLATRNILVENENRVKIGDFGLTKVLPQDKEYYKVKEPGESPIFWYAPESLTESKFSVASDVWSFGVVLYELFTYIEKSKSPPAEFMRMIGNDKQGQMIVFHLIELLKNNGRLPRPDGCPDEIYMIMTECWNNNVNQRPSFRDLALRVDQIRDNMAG
T1 sequence (O60674 whole entry): as the sequence (O60674 whole entry V617F) above, with F617V counted along it

Row | IC50 (JAK2 tyrosine kinase) | IC50 (JAK3 tyrosine kinase) | GI50 [1] | SMILES
1 | 1.1 nM | 19 nM | 89 nM | C[C@H](Nc1nc(Nc2cnccn2)cc(N2CC(CO)C2)n1)c1ccc(F)cc1 [Example 228, (S)-(1-{2-[1-(4-Fluorophenyl)ethylamino]-6-(pyrazin-2-ylamino)pyrimidin-4-yl}azetidin-3-yl)methanol]
2 | 0.59 nM | 33 nM | 97 nM | CCS(=O)(=O)NCC1CN(c2cc(Nc3cnccn3)nc(N[C@@H](C)c3ccc(F)cc3)n2)C1 [Example 231, (S)—N-[(1-{2-[1-(4-Fluorophenyl)ethylamino]-6-(pyrazin-2-ylamino)pyrimidin-4-yl}azetidin-3-yl)methyl]ethane sulfonamide]
3 | 0.55 nM | 32 nM | 88 nM | CC(=O)NCC1CN(c2cc(Nc3cnccn3)nc(N[C@@H](C)c3ccc(F)cc3)n2)C1 [Example 232, (S)—N-[(1-{2-[1-(4-Fluorophenyl)ethylamino]-6-(pyrazin-2-ylamino)pyrimidin-4-yl}azetidin-3-yl)methyl]acetamide]
